One test concerns Male rats. In words: Passive-avoidance test after ethanol administration. The class given is in vivo, rat. The settings on record: 250 mg/kg composition (Tacrine 2.5 mg/kg) daily for a week; 3 g/kg 50% ethanol oral before learning; tested 24 hours later, up to 300 seconds.
Test [1] addresses T1, recombinant human muscarinic acetylcholine receptor subtype 1 (mAChR-M1) (Homo sapiens, UniProt P11229).
T1 construct: purchased BSR BSR-MM1H; host or cells: Chinese Hamster Ovary (CHO) cells
T1 sequence (P11229 1-460): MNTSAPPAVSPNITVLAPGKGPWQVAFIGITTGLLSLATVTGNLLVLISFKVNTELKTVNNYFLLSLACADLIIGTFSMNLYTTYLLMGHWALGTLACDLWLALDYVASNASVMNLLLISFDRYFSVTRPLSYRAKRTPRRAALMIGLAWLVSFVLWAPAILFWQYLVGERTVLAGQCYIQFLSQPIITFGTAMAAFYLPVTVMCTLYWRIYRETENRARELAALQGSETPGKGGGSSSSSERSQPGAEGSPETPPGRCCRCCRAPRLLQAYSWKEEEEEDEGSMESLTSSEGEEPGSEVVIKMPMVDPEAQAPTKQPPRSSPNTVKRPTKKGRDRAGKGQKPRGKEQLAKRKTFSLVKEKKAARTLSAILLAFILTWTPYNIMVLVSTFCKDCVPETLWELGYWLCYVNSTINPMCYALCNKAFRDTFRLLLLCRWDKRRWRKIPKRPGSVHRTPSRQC
In words: Inhibition of [3H]N-methyl-scopolamine binding to muscarinic acetylcholine receptor subtype 1. The settings on record: control compound, read-out: concentration inhibiting the ligand binding to receptor by 50%.
Experimental: The ability of each of the compositions obtained in Example 1 in enhancing acetylcholine activity was measured by examining to what extent the binding of a ligand to muscarin acetylcholine receptor subtype 1(M1) is suppressed. That is, an excess amount of a radioactive isotope-labeled ligand was allowed to react with the receptor, unbound ligand was removed by filtering using a glass fiber filter and the amount of the isotope-labeled ligand on the filter was measured to quantify the amount of ligand bound to receptor, and thus, the effects of the compositions of the present invention was determined.
As the receptor, recombinant human muscarinic acetylcholine receptor subtype 1(mAChR-M1, BSR-MM1H, BSR) expressed in Chinese Hamster Ovary (CHO) cells was used. 250 μl of a deep-frozen (−70° C.) receptor fraction was suspended in 10 ml of phosphate buffer saline (PBS) (pH 7.4) and the concentration of the protein was adjusted to 130 μg/ml.
50 μl of 0.5 nM [^3H] N-methyl-scopolamine (24,605 DPM) (NEN, NET-636) and 10 μl of a test composition were added to each well of 96-well microtiter plate (Inotech harvester). […] The filtermat was dried in a microwave oven and the amount of the ligand bound to the receptor was evaluated by determining the radioactivity with the liquid scintillation counter (MicroBeta 1450 Plus; Wallac, Finland). […]

The target in test [2] is T2, NMDA-receptor (glycine site) (Rattus norvegicus, UniProt P35439).
T2 construct: Preparation of NMDA Receptor Fraction from Rat's Cerebrum; from tissue; host or cells: forebrain membrane fraction of male Sprague-Dawley rat
Kind of test: Inhibition of [3H]MDL 105,519 binding to the glycine site of NMDA receptor (rat forebrain fraction). The settings on record: control compound, read-out: concentration inhibiting the ligand binding to receptor by 50%. The text has this: The fact that the compositions of the present invention suppresses neuron damage was confirmed as follows by examining the activity thereof in suppressing the binding formation of NMDA-receptor (glycine site) bound. NMDA (N-Methyl-D-Aspartate) which acts as an excitatory neurotransmitter induces neuron damage.
That is, an excess amount of a radioactive isotope-labeled ligand was allowed to react with the receptor, unbound ligand was removed by filtering using a glass fiber filter and the amount of the isotope-labeled ligand on the filter was measured to quantify the amount of ligand bound to receptor, and thus, the effects of the compositions of the present invention was determined.
Forebrain taken from a male Spargue-Dawley rat was sliced and a 10-fold volume of cold sucrose solution ([…]) was added thereto. The resulting mixture was homogenized (5 strokes) using a Teflon-glass homogenizer, and then centrifuged at 1000 g (10 min., 4° C.). The supernatant was centrifuged at 20000 g (20 min., 4° C.) to obtain a precipitate, a 20-fold volume of cold distilled water was added thereto and homogenized using Brinkman Polytron Homogenizer. […] The protein content was measured according to Bradford method and the protein concentration of suspension was adjusted to 1 mg/ml, divided into several fractions and kept at −70° C. […]

Here are results for 3 compounds from patent US20040185128A1, “Use of an extract of the root of balloon-flower for preventing and treating a degenerative brain disease or for enhancing memory” (priority 2001, published 2004).

pIC50: −log10 of the molar value.

Experimental for Male rats: Male rats, each weighing about 18 to 20 g, were raised under a condition of temperature 22±1° C. and 12L/12D photoperiod for 7 days while being allowed free access to food and water and used in the Test after 3 days of acclimatization.
The passive avoidance test composed of consecutively learning and testing procedures was conducted over a period of 2 days (interval: 24hours) using PACS-30 shuttle box system (Columbus Instrument Co.).
30 minutes after the 7th (last) administeration, a 3 g/kg dose of 50% ethanol was orally administered to respective rats. After 1 hour, the rats were placed in the bright area of a room which was divided into a dark and bright areas by a guillotin door and allowed to stay there for 30 seconds (the searching time). The guillotin door was opened to let the rats move to the dark side of the room. […] The time the rats took to move from the bright side to the dark side was measured automatically. […]
24 hours after the learning procedure, test procedure was conducted as follows. After 30 seconds of the searching time and opening of the gillontin door, the time the test animal took to move from the bright side to the dark side (latency time) was measured up to the extent 300 seconds. […]

As for `Nc1c2c(nc3ccccc13)CCCC2` [Comparative group, 9-amino-1,2,3,4-tetrahydroacrine], in the test on Male rats, the “Latency Time” value is given as 31 s.
For `C[N+]1(C)CCC(OC(=O)C(c2ccccc2)c2ccccc2)CC1` [4-DAMP methiodide], the pIC50 in test [1] was 7.62.
`O=C(O)c1cc(=O)c2c(Cl)cc(Cl)cc2[nH]1` [5,7-DCKA, 5,7-Dichlorokynurenic acid]: the pIC50 in test [2] was 6.00.
